# Paper PMC4104029, “Mechanism of Action of Compound-13: An α1-Selective Small Molecule Activator of AMPK” (Chemistry & Biology, 2014)
# Biological target: Yeast acetate CoA ligase
# Assay: Acetate CoA ligase assay
# Format: biochemical
# Details: 0–100 μM
# From the text: (Needleman and Wunsch, 1970) and edited using ESPript (Gouet, et al., 2003). Secondary structure was derived from PDBID 2Y94. The phosphotransferase domain is shaded green (T-loop phosphorylation site is indicated with a star), the autoinhibitory domain in blue and the C-terminal domain in yellow. Regulatory elements in the α-linker are also indicated: α-hook in pink and α-RIMs in orange. Black lines indicate the position of the epitopes recognised by α-subunit specific antibodies used in this study. (B) COS-1 cells were seeded into 6-well plates and transiently transfected with pCMV-AMPKβ1, pCMV-AMPKγ1 and either pCMV-FLAG-AMPKα2 WT or pCMV-FLAG-AMPKα2/α1 LOOP chimera using FuGENE HD.
# After 24 h cells were treated with the indicated compounds for 1 h and kinase activity determined in anti-FLAG immunoprecipitates under standard conditions. […]
# Mouse hepatocytes were incubated with the indicated compounds in the absence (Resting) or presence of 10 mU/ml insulin for 60 min. Lysates were analysed by Western blotting using the indicated antibodies. […]
# Yeast acetate CoA ligase (Sigma) was assayed in reactions containing 50 mM TES pH 7.4, 0.1 mM EDTA, 5 mM MgCl2, 4 mM ATP, 0.2 mM coenzyme A, 5 mM DTT and increasing concentrations of C2 and C13 (0 – 100 μM). The formation of pyrophosphate (PPi) was monitored by reduction of PPi-molybdate complexes as described in Methods. […]
smiles,measurement,value
CC(C)C(=O)OCOP(=O)(OCOC(=O)C(C)C)c1ccc(C2=NOC(=O)C2)o1 [Compound C13],IC50,33 ± 2.2 µM
